Reference: paper PMC12647591, “Evolution, structure and function of L-cysteine desulfidase, an enzyme involved in sulfur metabolism in the methanogenic archeon Methanococcus maripaludis” (Communications Biology, 2025)
Positions count from the first letter of the chain named.

Legend:
[1] = target: T1, L-cysteine desulfidase CyuA (MmCyuA) (Methanococcus maripaludis, UniProt Q6LX84); assay: crystal structure, […] Å (from crystallization solution); assay type: binding; design: gene MMP1468; [2Fe-2S]-MmCyuA, molecule A
T1 sequence (Q6LX84 whole entry): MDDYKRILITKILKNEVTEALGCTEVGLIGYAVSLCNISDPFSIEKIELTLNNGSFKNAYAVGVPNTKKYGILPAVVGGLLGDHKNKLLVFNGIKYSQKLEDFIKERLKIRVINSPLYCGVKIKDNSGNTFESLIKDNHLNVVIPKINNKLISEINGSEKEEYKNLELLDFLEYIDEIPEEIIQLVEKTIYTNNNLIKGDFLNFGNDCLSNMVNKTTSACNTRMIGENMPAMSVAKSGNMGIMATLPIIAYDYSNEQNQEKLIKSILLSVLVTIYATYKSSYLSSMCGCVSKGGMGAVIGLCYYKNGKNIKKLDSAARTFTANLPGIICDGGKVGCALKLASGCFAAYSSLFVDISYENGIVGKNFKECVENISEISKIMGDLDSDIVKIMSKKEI

[2] = target: T2, L-cysteine desulfidase CyuA (MmCyuA) (Methanococcus maripaludis, UniProt Q6LX84, C289A); assay: crystal structure, […] Å (from cryoprotectant); assay type: binding
T2 construct: gene MMP1468; holo-C289A-MmCyuA
T2 sequence (Q6LX84 1-396 C289A): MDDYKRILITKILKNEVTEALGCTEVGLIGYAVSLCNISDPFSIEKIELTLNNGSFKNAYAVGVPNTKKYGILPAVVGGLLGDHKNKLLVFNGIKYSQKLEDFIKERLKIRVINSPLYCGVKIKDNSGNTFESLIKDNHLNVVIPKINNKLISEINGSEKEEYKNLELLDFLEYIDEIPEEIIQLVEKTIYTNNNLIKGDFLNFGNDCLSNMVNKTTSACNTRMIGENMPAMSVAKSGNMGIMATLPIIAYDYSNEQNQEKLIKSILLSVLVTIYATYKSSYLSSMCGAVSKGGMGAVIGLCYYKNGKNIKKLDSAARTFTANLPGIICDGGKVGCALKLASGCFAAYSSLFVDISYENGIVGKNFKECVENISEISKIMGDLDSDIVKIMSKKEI

[3] = target: T1, L-cysteine desulfidase CyuA (MmCyuA); assay: pyruvate formation assay ([…],4-dinitrophenylhydrazine), Lineweaver-Burk and Dixon plots; assay type: biochemical; design: gene MMP1468; holo-MmCyuA, recombinant, His-tag removed
[4] = target: the molecule itself; assay: SEC-MALS; apo-MmCyuA (cluster removed with dithionite and EDTA), 100 uL at 2 mg/mL on Superdex 200 10/300 GL Increase, 50 mM Tris-HCl pH 8.5, 300 mM NaCl, 5 mM DTT

`O=S(=O)(O)CCN1CCOCC1` [2-(N-morpholino)ethanesulfonic acid] was tested, and the “crystal structure, 2.42 Å (from crystallization solution)” value [1] was “sulfonate group of MES and the chloride ion were located at the same anion binding site”.

For `OCC(O)CO` [GOL, glycerol], the “crystal structure, 3.18 Å (from cryoprotectant)” value [2] was “One terminal hydroxyl of the glycerol molecule was coordinated to that Fe atom”.

`N[C@@H](CO)C(=O)O` [L-serine] showed a Ki [3] of 15 ± 0.3 µM.

B1: L-cysteine desulfidase CyuA from Methanococcus maripaludis (enzyme, Methanococcus maripaludis strain S2)
chain: T2 sequence (Q6LX84 1-396 C289A) with A289C
notes: L-cysteine desulfidase CyuA (MmCyuA), product of the mmp1468 gene of Methanococcus maripaludis strain S2 (NC_005791.1); synthetic codon-optimised gene in pET15b between NdeI and BamHI; theoretical mass of the monomer 43.7 kDa; the synthetic mmp1468 gene appears to have been cloned whole; Holo form carries one [4Fe-4S] cluster per monomer (Cys287, Cys289, Cys329, Cys336); in crystal 2 a [2Fe-2S] …
With B1 the “stoichiometry N” value [4] was 2.
